Experimental data: patent publication US20230391765A1, “HETEROBIFUNCTIONAL COMPOUNDS AS DEGRADERS OF ENL” (ICAHN SCHOOL OF MEDICINE AT MOUNT SINAI, priority 2020, published 2023)

Tests used:
Format in all cases: cell-based
[1] = test system: ENL-dependent MV4; 11 cells; assay: Cell viability (CellTiter-Glo), MV4; 11 cells
Protocol: (§1) MV4; 11 (FIG. 13A), MOLM13 (FIG. 13B) and Jurkat (FIG. 13C) cells were seeded at 2×10^5 cells/mL density and treated with DMSO or indicated compounds 0.5, 1, 2 and 4 μM for 72 h. Cell viability was measured using CellTiter-Glo reagent (Promega) and relative cell viability was calculated by normalization to DMSO samples.
(§2) ENL-dependent MV4; 11 cells were seeded at 2×10^5 cells/mL density and treated with DMSO or the indicated compounds at 0, 1.25, 2.5, 5 and 10 μM for 72 h. Cell viability was measured using CellTiter-Glo reagent (Promega) and relative cell viability was calculated by normalization to DMSO samples.
as §2, with “11 and ENL-independent Jurkat” for “11”, “or” for “or the”, “10 nM, 100 nM, 1 μM” for “0, 1.25, 2.5, 5”, “3 days (A) or 6 days (B).” for “72 h.”
(§3) MV4; 11 or MOLM13 cells were seeded at 0.2×10^6 cells/mL density. Cells were treated with DMSO or ENL degraders at indicated concentrations. Each treatment was done in triplicates. After 72 h treatment, 100 μL of cell suspension from each treatment was mixed with 25 μL of CellTiter-Glo reagent (Promega) and incubated for 10 min before the luminescence signals were detected on a plate reader.

ENL target genes = assay: RT-qPCR of ENL target genes in MOLM13 cells
Protocol: MOLM13 cells were treated with LQ076-122 (FIG. 14A) and LQ081-108 (FIG. 14B) at 0.5, 1, 2, 4, and 8 μM for 24 h. […] RT-qPCR analysis was performed to detect the mRNA levels of selected ENL target genes.
Total RNA was extracted using the RNeasy Plus kit (Qiagen) and reverse-transcribed using the iScript cDNA Synthesis kit (Bio-Rad). RT-qPCR was performed using the Power SYBR Green PCR Master Mix (Applied Biosystems) on the CFX96 Real-Time PCR system (Bio-Rad). Gene expressions were calculated following normalization to 18s rRNA amounts using the comparative cycle threshold (Ct) method.

[2] = test system: ENL-independent Jurkat cells; assay: Cell viability (CellTiter-Glo), Jurkat cells
Protocol: as §1
as §2, with “11 and ENL-independent Jurkat” for “11”, “or” for “or the”, “10 nM, 100 nM, 1 μM” for “0, 1.25, 2.5, 5”, “3 days (A) or 6 days (B).” for “72 h.”

ENL [3] = biological target: T1, ENL (Homo sapiens, UniProt Q03111); assay: Western blot of ENL protein levels in MV4; 11 cells
T1 construct: Cells were lysed and expression of endogenous ENL was assessed by Western blot analysis; host or cells: MV4;11
T1 sequence (Q03111 1-559): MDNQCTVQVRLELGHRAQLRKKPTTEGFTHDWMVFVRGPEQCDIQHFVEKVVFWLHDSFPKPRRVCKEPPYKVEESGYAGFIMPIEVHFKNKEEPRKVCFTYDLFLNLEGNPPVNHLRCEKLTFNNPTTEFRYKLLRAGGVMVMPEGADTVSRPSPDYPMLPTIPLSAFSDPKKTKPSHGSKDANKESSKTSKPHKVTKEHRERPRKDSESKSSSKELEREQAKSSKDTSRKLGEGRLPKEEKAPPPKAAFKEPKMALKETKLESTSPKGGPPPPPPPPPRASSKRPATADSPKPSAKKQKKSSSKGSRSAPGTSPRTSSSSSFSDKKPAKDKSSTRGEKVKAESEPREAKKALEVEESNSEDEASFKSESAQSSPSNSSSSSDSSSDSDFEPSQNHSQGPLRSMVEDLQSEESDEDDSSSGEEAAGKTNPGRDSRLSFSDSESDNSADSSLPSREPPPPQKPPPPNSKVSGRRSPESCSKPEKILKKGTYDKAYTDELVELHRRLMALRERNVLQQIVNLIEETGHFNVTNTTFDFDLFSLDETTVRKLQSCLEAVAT
Protocol: MV4; 11 cells were treated with DMSO or the indicated compounds (the same panel of ENL degraders as shown in FIG. 4) at 1 μM and 10 μM for 24 h. Cells were lysed and expression of ENL was assessed by Western blot analysis.
DMSO treated cells were used as control.
MV4; 11 cells were treated with LQ076-122, or LQ081-107 at 0.3, 1, 3, 10, and 30 μM for 24 h. DMSO treated cells were used as control. Cells were lysed and expression of ENL and GAS41 was assessed by Western analysis.
MV4; 11 cells were treated with DMSO or the indicated compounds at 1 μM and 10 μM for 6 h. Cells were lysed and expression of endogenous ENL was assessed by Western blot analysis.
Cells were treated with 1 μM of ENL degrader with or without 1 μM proteasome inhibitor MG132 for 6 h.
(§4) ENL degraders were dissolved in DMSO. DMSO with no degraders was used as the control. 1×10^6 leukemia cells were seeded in 5 mL medium. For prescreening of compounds, each test compound was added to the medium at 1 μM and 10 μM. Cells were collected after 24 h treatment. For the concentration-dependent treatment, candidate compounds were added to the medium at a series of concentration as indicated in figures. Cells were collected after 24 h treatment. For the time-course treatment, candidate compounds were added to the medium at a final concentration of 4 μM (MV4; 11 cells) or 8 μM (MOLM13 cells). Cells were collected at the indicated timepoints (in hours: 12, 16, 20, 24 and 36 h).
(§5) After ENL degrader treatment, cells were collected, lysed, and total cell lysates were used for Western blot. The following primary antibodies were used: ENL (Cell Signaling Technology), GAS41 (Santa Cruz), GAPDH (Santa Cruz), β-actin (Sigma). Blots were detected using HRP-conjugated secondary antibodies.

[4] = test system: ENL-dependent MOLM13 leukemia cells; assay: Cell viability (CellTiter-Glo), MOLM13 cells; details: MOLM13 cells, 0.5, 1, 2 and 4 μM for 72 h
Protocol: as §1, §3

ENL [5] = biological target: T1, ENL; assay: Western blot of ENL protein levels in MOLM13 cells
Protocol: MOLM13 cells were treated with LQ076-122 or LQ081-108 at 0, 0.25, 0.5, 1, 1.5, 2, 2.5, 3, 4 and 8 μM for 24 h.
MOLM13 cells were treated with DMSO or 8 μM of LQ076-122 for 12, 16, 20, 24 and 36 h.
MV4; 11, MOLM13 and Jurkat cells were treated with LQ108-69, LQ108-71, LQ108-72, LQ126-62 and LQ126-63 at 0, 1 nM, 10 nM, 100 nM, 1 μM, and 10 μM doses for 6 h. DMSO was used as negative control.
as §4, §5

ENL [6] = biological target: T1, ENL; assay: Western blot of ENL protein levels in Jurkat cells
Description: […] DMSO was used as negative control.
as §5

[7] = 11 cells, 0.5, 1, 2 and 4 μM for 72 h
[8] = Jurkat cells, 0.5, 1, 2 and 4 μM for 72 h
[9] = 11 cells, 0.3, 1, 3 and 10 μM for 12 and 24 h

Structure (SMILES) | suppression of cell growth (relative cell viability) [1, 7] | suppression of cell growth (relative cell viability) [2, 8] | reduction of ENL protein levels (ENL [3]; [9]) | suppression of cell growth (relative cell viability) [4] | further results
Cc1ncsc1-c1ccc([C@H](C)NC(=O)[C@H]2C[C@H](O)CN2C(=O)[C@@H](NC(=O)CCCCCCCCCCNC(=O)c2ccc(C(=O)Nc3ccc4[nH]c(CN5CCC[C@@H]5C)nc4c3)cc2)C(C)(C)C)cc1 [LQ081-106] | did not significantly affect cell growth | did not significantly affect cell growth | did not affect ENL protein levels | did not significantly affect cell growth | ENL target gene expression (mRNA levels) (ENL target genes; MOLM13 cells, 8 μM for 24 h): did not dramatically affect these genes
Cc1ncsc1-c1ccc(CNC(=O)[C@H]2C[C@H](O)CN2C(=O)[C@@H](NC(=O)CCCCCCCCCCNC(=O)c2ccc(C(=O)Nc3ccc4[nH]c(CN5CCC[C@@H]5C)nc4c3)cc2)C(C)(C)C)cc1 [LQ081-107] |  |  | did not affect ENL protein levels |  | ENL target gene expression (mRNA levels) (ENL target genes; MOLM13 cells, 8 μM for 24 h): did not dramatically affect these genes
Cc1ncsc1-c1ccc([C@H](C)NC(=O)[C@@H]2C[C@@H](O)CN2C(=O)[C@@H](NC(=O)CCCCCCCCCCNC(=O)c2ccc(C(=O)Nc3ccc4[nH]c(CN5CCC[C@@H]5C)nc4c3)cc2)C(C)(C)C)cc1 [LQ081-108, N^1-(11-(((S)-1-((2S,4R)-4-hydroxy-2-(((S)-1-(4-(4-methylthiazol-5-yl)phenyl)ethyl)carbamoyl)pyrrolidin-1-yl)-3,3-dimethyl-1-oxobutan-2-yl)amino)-11-oxoundecyl)-N^4-(2-(((S)-2-methylpyrrolidin-1-yl)methyl)-1H-benzo[d]imidazol-5-yl)terephthalamide] | selectively suppressed cell growth |  | reduced ENL protein levels in a concentration- and time-dependent manner | selectively suppressed cell growth | ENL target gene expression (mRNA levels) (ENL target genes; MOLM13 cells, 0.5, 1, 2, 4 and 8 μM for 24 h): reduced ENL target gene expression in a concentration-dependent manner; reduction of ENL protein levels (ENL [3]; 11 cells, 0-8 μM for 24 h): reduced ENL protein levels in a concentration-dependent manner; reduction of ENL protein levels (ENL [3]; 11 cells, 10 μM, 24 h): effective in reducing ENL protein levels; reduction of ENL protein levels (ENL [5]; 0-8 μM for 24 h): reduced ENL protein levels in a concentration-dependent manner
Cc1ncsc1-c1ccc([C@H](C)NC(=O)[C@H]2C[C@H](O)CN2C(=O)[C@@H](NC(=O)CCCCCCCCCCCNC(=O)c2ccc(C(=O)Nc3ccc4[nH]c(CN5CCC[C@@H]5C)nc4c3)cc2)C(C)(C)C)cc1 [LQ081-158] | did not significantly affect cell growth | did not significantly affect cell growth |  | did not significantly affect cell growth | 
Cc1ncsc1-c1ccc([C@H](C)NC(=O)[C@@H]2C[C@@H](OCc3ccccc3)CN2C(=O)[C@@H](NC(=O)CCCCCCCCCCNC(=O)c2ccc(C(=O)Nc3ccc4[nH]c(CN5CCC[C@@H]5C)nc4c3)cc2)C(C)(C)C)cc1 [LQ108-141] | did not significantly affect cell growth | did not significantly affect cell growth |  | did not significantly affect cell growth | 
Cc1ncsc1-c1ccc([C@H](C)NC(=O)C2C[C@@H](OCc3ccccc3)CN2C(=O)[C@@H](NC(=O)CCCCCCCCCCCNC(=O)c2ccc(C(=O)Nc3ccc4[nH]c(CN5CCC[C@@H]5C)nc4c3)cc2)C(C)(C)C)cc1 (stereo partly drawn) [LQ108-142] | did not significantly affect cell growth | did not significantly affect cell growth |  | did not significantly affect cell growth | 
Cc1ncsc1-c1ccc(CNC(=O)[C@@H]2C[C@@H](O)CN2C(=O)[C@@H](NC(=O)CCCCCCCCCCNC(=O)c2ccc3c(c2)[C@H](NC(=O)c2cc(-c4ccc(C(=O)N(C)C)c(O)c4)on2)CC3)C(C)(C)C)cc1 [LQ126-63, 5-(4-(dimethylcarbamoyl)-3-hydroxyphenyl)-N—((R)-6-((11-(((S)-1-((2S,4R)-4-hydroxy-2-((4-(4-methylthiazol-5-yl)benzyl)carbamoyl)pyrrolidin-1-yl)-3,3-dimethyl-1-oxobutan-2-yl)amino)-11-oxoundecyl)carbamoyl)-2,3-dihydro-1H-inden-1-yl)isoxazole-3-carboxamide] |  |  |  |  | suppression of cell growth (relative cell viability) ([1]; 11 cells, 100 nM dose, 3 days and 6 days): strongly suppressed MV4; 11 cell growth; suppression of cell growth (relative cell viability) ([1]; 11 cells, 1.25, 2.5, 5 and 10 μM for 72 h): significantly suppressed MV4; 11 cell growth at low micromolar concentration; suppression of cell growth (relative cell viability) ([2]; Jurkat cells, 10 nM to 10 μM, 3 days and 6 days): did not affect the growth of ENL-independent Jurkat cells; reduction of ENL protein levels (ENL [6]; 1 nM to 10 μM for 6 h): reduced ENL protein levels in a concentration-dependent manner; ENL protein level after long treatment (ENL [6]; 1 μM for 48 and 72 h): maintained the ENL protein at low levels; reduction of ENL protein levels (ENL [3]; 11 cells, 1 nM to 10 μM for 6 h): reduced ENL protein levels in a concentration-dependent manner; effect of proteasome inhibitor MG132 on the ENL degradation induced by the degrader (ENL [3]; 11 cells, 1 μM degrader with or without 1 μM MG132 for 6 h): partially blocks the ENL degradation; ENL protein level after long treatment (ENL [3]; 11 cells, 1 μM for 48 and 72 h): maintained the ENL protein at low levels; reduction of ENL protein levels (ENL [5]; 1 nM to 10 μM for 6 h): reduced ENL protein levels in a concentration-dependent manner; ENL protein level after long treatment (ENL [5]; 1 μM for 48 and 72 h): maintained the ENL protein at low levels
